According to patent US20250115669A1, “FGFR1/KLB Targeting Agonistic Antigen-Binding Proteins and Conjugates Thereof with GLP-1R Agonistic Peptides” (SANOFI, priority 2020, published 2025):
Peptide text beside a SMILES is read from it.

What was measured:
[1] = target: T1, human glucagon (GCG) receptor (Homo sapiens, UniProt P47871); experiment: HTRF cAMP assay in HEK-293 cells expressing human glucagon receptor; assay type: cell-based; conditions: HEK-293 cells; read-out: HTRF cAMP EC50 Human GCGR
T1 construct: expressed in transfected cells; host or cells: PSC-HEK-293
T1 sequence (P47871 26-477): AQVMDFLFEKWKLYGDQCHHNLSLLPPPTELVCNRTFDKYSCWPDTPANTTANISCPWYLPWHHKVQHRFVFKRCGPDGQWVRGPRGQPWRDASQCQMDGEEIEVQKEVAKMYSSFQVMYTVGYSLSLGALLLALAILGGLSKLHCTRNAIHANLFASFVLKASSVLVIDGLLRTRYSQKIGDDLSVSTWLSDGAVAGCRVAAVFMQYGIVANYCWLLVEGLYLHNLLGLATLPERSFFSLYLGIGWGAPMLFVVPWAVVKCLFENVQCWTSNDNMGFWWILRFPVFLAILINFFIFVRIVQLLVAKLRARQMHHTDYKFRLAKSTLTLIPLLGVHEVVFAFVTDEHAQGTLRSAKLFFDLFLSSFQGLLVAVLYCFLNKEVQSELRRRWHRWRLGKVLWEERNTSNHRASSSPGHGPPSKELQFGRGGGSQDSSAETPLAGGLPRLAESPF
Method: (§1) Each vial contained 1.8 ml cells. The vials were slowly frozen to −80° C. in isopropanol, and then transferred in liquid nitrogen for storage.
(§2) Cells were resuspended in assay buffer (cell buffer plus 2 mM IBMX) and adjusted to a cell density of 1 million cells/ml.
(§3) For measurement of cAMP generation, 5 μl cells (final 5000 cells/well) and 5 μl of test compound were added to a 384-well plate, followed by incubation for 30 min at room temperature.
(§4) The cAMP generated was determined using a kit from Cisbio Corp. based on HTRF (Homogenous Time Resolved Fluorescence). The cAMP assay was performed according to manufacturer's instructions (Cisbio).

human GIP receptor = target: T2, human GIP receptor (Homo sapiens, UniProt P48546); experiment: HTRF cAMP assay in HEK-293 cells expressing human GIP receptor; assay type: cell-based; conditions: HEK-293 cells; read-out: HTRF cAMP EC50 Human GIPR
T2 construct: expressed in transfected cells; host or cells: PSC-HEK-293
T2 sequence (P48546 22-466): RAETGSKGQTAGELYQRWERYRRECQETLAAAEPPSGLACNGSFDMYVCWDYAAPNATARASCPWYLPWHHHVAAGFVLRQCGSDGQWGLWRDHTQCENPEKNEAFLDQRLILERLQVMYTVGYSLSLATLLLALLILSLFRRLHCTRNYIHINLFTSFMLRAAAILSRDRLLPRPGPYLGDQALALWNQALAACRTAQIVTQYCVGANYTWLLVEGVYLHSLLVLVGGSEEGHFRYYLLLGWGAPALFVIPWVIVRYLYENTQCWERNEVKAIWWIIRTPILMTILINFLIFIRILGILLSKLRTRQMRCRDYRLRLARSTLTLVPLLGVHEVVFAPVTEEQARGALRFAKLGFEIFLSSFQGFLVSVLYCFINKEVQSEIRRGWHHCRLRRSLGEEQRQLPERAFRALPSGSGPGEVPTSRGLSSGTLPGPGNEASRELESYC
Method: as §1, §2, §3, §4

[2] = SAR16 (16H7) standalone and in combination with dulaglutide in DIO NASH cynomolgus monkeys; assay type: in vivo, Cynomolgus monkey (Macaca fascicularis)
Method: Both were tested as single administration and in combination of both in the most relevant animal model that reflects the intended human population. Thus, the pharmacokinetic and pharmacodynamics of varying doses of the compounds were explored in the high-fat diet-induced obese and insulin resistance cynomolgus monkey model with diagnosed non-alcoholic steatohepatitis (NASH), mimicking the adult human NASH insulin resistance phenotype.
Cynomolgus monkey (Macaca fascicularis) was selected as the test species of choice for more meaningful results that were translatable to humans. More than 50 male monkeys were trained to identify 40 HFD induced obese NASH monkeys for the study.
There was a run-in period during which monkeys were injected subcutaneously with vehicle every third day. Food intake (calculated as TEI) and water intake were measured daily along with twice-weekly body weight evaluation and baseline value determination for metabolic biomarkers, safety biomarkers, IV glucose tolerance test (IVGTT), liver biopsy for gene expression analysis, and profile for glucose, insulin, and plasma lipids.
For the dosing period 40 trained monkeys (n=10 per group) were selected and stratified for body weight, fasting plasma glucose (FPG), and fasting plasma insulin (FPI) and insulin response from baseline during the IVGTT. All treatments were administered subcutaneously for […]. The dosing period was designed as a four-arm, dose-ramping study, and monkeys were treated with either vehicle, SAR10, SAR16, or a combination of both SAR10 and SAR16.
(§5) The SAR10-treated monkeys were dosed every 3rd day at 60 μg/kg initiated by dose ramping (3 dose steps, week 1: 20 μg/kg, week 2: 40 μg/kg, week 3 to runout: 60 μg/kg). The SAR16-treated monkeys were dosed at 1 mg/kg on day +1, 3 mg/kg on day +16, and then repeat maintenance dose of 3 mg/kg on day +46. The Combo-treated monkey were dosed with both SAR10 and SAR16 as the same pattern of the SAR10 and SAR16 treated monkeys.
Other parameters were also measured during the study, including food intake, body fat, plasma ketone bodies, as well as blood glucose control (glucose profile, fed, fasting plasma glucose and during ivGTT). One group received the vehicle. The compounds were administered subcutaneously (SC) (12 weeks “evaluation phase” plus run-out) to obese and NASH male cynomolgus macaques (Macaca fascicularis).
as §5, with “at” for “as”

[3] = compared to the vehicle treated group
[4] = day +76 compared to baseline (day −27)

Which results are given for `CC[C@H](C)[C@H](NC(=O)[C@H](CC(C)C)NC(=O)[C@H](Cc1c[nH]c2ccccc12)NC(=O)[C@H](CCC(=O)O)NC(=O)[C@@H](NC(=O)[C@H](Cc1ccccc1)NC(=O)[C@H](CCC(=O)O)NC(=O)[C@H](Cc1c[nH]cn1)NC(=O)[C@@H](NC(=O)[C@H](C)NC(=O)[C@H](CCCNC(=N)N)NC(=O)[C@H](CCCCN)NC(=O)[C@H](CCC(=O)O)NC(=O)[C@H](CC(C)C)NC(=O)[C@H](CC(C)C)NC(=O)[C@H](CCCCN)NC(=O)[C@H](CO)NC(=O)[C@H](CC(C)C)NC(=O)[C@H](CC(=O)O)NC(=O)[C@H](CO)NC(=O)[C@@H](NC(=O)[C@H](Cc1ccccc1)NC(=O)[C@@H](NC(=O)CNC(=O)[C@H](CCC(=O)O)NC(=O)CNC(=O)[C@@H](N)Cc1c[nH]cn1)[C@@H](C)O)[C@@H](C)O)C(C)C)[C@@H](C)CC)C(=O)N[C@@H](C)C(=O)NCC(=O)NCC(=O)N1CCC[C@H]1C(=O)N[C@@H](CO)C(=O)N[C@@H](CO)C(=O)NCC(=O)N[C@@H](CCCCN)C(=O)N1CCC[C@H]1C(=O)N1CCC[C@H]1C(=O)N1CCC[C@H]1C(=O)N[C@@H](CCCCN)C(N)=O` [Ab P027] (H-HGEGTFTSDLSKLLEKRAVHEFIEWLIAGGPSSGKPPPK-NH2; N-terminus assumed)?
EC50 [1]: > 10 nM; EC50 (human GIP receptor): 0.225 nM

With `CC[C@H](C)[C@H](NC(=O)[C@H](CC(C)C)NC(=O)[C@H](Cc1c[nH]c2ccccc12)NC(=O)[C@H](CCC(=O)O)NC(=O)[C@@H](NC(=O)[C@H](Cc1ccccc1)NC(=O)[C@H](CCC(=O)O)NC(=O)[C@H](Cc1c[nH]cn1)NC(=O)[C@H](CCC(N)=O)NC(=O)[C@H](C)NC(=O)[C@H](CCCNC(=N)N)NC(=O)[C@H](CCCCN)NC(=O)[C@H](CCC(=O)O)NC(=O)[C@H](CC(C)C)NC(=O)[C@H](CC(C)C)NC(=O)[C@H](CCCCN)NC(=O)[C@H](CO)NC(=O)[C@H](CC(C)C)NC(=O)[C@H](CC(=O)O)NC(=O)[C@H](CO)NC(=O)[C@@H](NC(=O)[C@H](Cc1ccccc1)NC(=O)[C@@H](NC(=O)CNC(=O)[C@H](CCC(=O)O)NC(=O)CNC(=O)[C@@H](N)Cc1c[nH]cn1)[C@@H](C)O)[C@@H](C)O)[C@@H](C)CC)C(=O)N[C@@H](C)C(=O)NCC(=O)NCC(=O)N1CCC[C@H]1C(=O)N[C@@H](CO)C(=O)N[C@@H](CO)C(=O)NCC(=O)N[C@@H](CCCCN)C(=O)N1CCC[C@H]1C(=O)N1CCC[C@H]1C(=O)N1CCC[C@H]1C(=O)N[C@@H](CCCCN)C(N)=O` [Ab P028] (H-HGEGTFTSDLSKLLEKRAQHEFIEWLIAGGPSSGKPPPK-NH2; N-terminus assumed) as the compound, how does the EC50 [1] read?
The EC50 was > 10 nM.

What about the EC50 (human GIP receptor) of the same compound?
Its EC50 is 0.39 nM.

Which results are given for `CC[C@H](C)[C@H](NC(=O)[C@H](Cc1ccccc1)NC(=O)[C@H](CCC(=O)O)NC(=O)[C@H](Cc1c[nH]cn1)NC(=O)[C@@H](NC(=O)[C@H](C)NC(=O)[C@H](CCCNC(=N)N)NC(=O)[C@H](CCCCN)NC(=O)[C@H](CCC(=O)O)NC(=O)[C@H](CC(C)C)NC(=O)[C@H](CC(C)C)NC(=O)[C@H](CCCCN)NC(=O)[C@H](CO)NC(=O)[C@H](CC(C)C)NC(=O)[C@H](CC(=O)O)NC(=O)[C@H](CO)NC(=O)[C@@H](NC(=O)[C@H](Cc1ccccc1)NC(=O)[C@@H](NC(=O)CNC(=O)[C@H](CCC(=O)O)NC(=O)CNC(=O)[C@@H](N)Cc1c[nH]cn1)[C@@H](C)O)[C@@H](C)O)C(C)C)C(=O)N[C@@H](CCC(=O)O)C(=O)N[C@@H](Cc1c[nH]c2ccccc12)C(=O)N[C@@H](CC(C)C)C(=O)N[C@@H](CCCCN)C(=O)N[C@@H](C)C(=O)NCC(=O)NCC(=O)N1CCC[C@H]1C(=O)N[C@@H](CO)C(=O)N[C@@H](CO)C(=O)NCC(=O)N[C@@H](CCCCN)C(=O)N1CCC[C@H]1C(=O)N1CCC[C@H]1C(=O)N1CCC[C@H]1C(=O)N[C@@H](CCCCN)C(N)=O` [Ab P029] (H-HGEGTFTSDLSKLLEKRAVHEFIEWLKAGGPSSGKPPPK-NH2; N-terminus assumed)?
EC50 [1]: > 10 nM; EC50 (human GIP receptor): 1.37 nM

For `CC[C@H](C)[C@H](NC(=O)[C@H](Cc1ccccc1)NC(=O)[C@H](CCC(=O)O)NC(=O)[C@H](Cc1c[nH]cn1)NC(=O)[C@H](CCC(N)=O)NC(=O)[C@H](C)NC(=O)[C@H](CCCNC(=N)N)NC(=O)[C@H](CCCCN)NC(=O)[C@H](CCC(=O)O)NC(=O)[C@H](CC(C)C)NC(=O)[C@H](CC(C)C)NC(=O)[C@H](CCCCN)NC(=O)[C@H](CO)NC(=O)[C@H](CC(C)C)NC(=O)[C@H](CC(=O)O)NC(=O)[C@H](CO)NC(=O)[C@@H](NC(=O)[C@H](Cc1ccccc1)NC(=O)[C@@H](NC(=O)CNC(=O)[C@H](CCC(=O)O)NC(=O)CNC(=O)[C@@H](N)Cc1c[nH]cn1)[C@@H](C)O)[C@@H](C)O)C(=O)N[C@@H](CCC(=O)O)C(=O)N[C@@H](Cc1c[nH]c2ccccc12)C(=O)N[C@@H](CC(C)C)C(=O)N[C@@H](CCCCN)C(=O)N[C@@H](C)C(=O)NCC(=O)NCC(=O)N1CCC[C@H]1C(=O)N[C@@H](CO)C(=O)N[C@@H](CO)C(=O)NCC(=O)N[C@@H](CCCCN)C(=O)N1CCC[C@H]1C(=O)N1CCC[C@H]1C(=O)N1CCC[C@H]1C(=O)N[C@@H](CCCCN)C(N)=O` [Ab P030] (H-HGEGTFTSDLSKLLEKRAQHEFIEWLKAGGPSSGKPPPK-NH2; N-terminus assumed), which EC50 [1] is on record?
The EC50 was > 10 nM.

What about the EC50 (human GIP receptor) of the same compound?
Its EC50 is 2.76 nM.

Which EC50 [1] does the source give for `CC[C@H](C)[C@H](NC(=O)[C@H](CC(C)C)NC(=O)[C@H](Cc1c[nH]c2ccccc12)NC(=O)[C@H](CCC(=O)O)NC(=O)[C@@H](NC(=O)[C@H](Cc1ccccc1)NC(=O)[C@H](CCC(=O)O)NC(=O)[C@H](Cc1c[nH]cn1)NC(=O)[C@H](CCC(N)=O)NC(=O)[C@H](C)NC(=O)[C@H](CCCNC(=N)N)NC(=O)[C@H](CCCCN)NC(=O)[C@H](CCC(=O)O)NC(=O)[C@H](CC(C)C)NC(=O)[C@H](CC(C)C)NC(=O)[C@H](CCC(=O)O)NC(=O)[C@H](CO)NC(=O)[C@H](CC(C)C)NC(=O)[C@H](CC(=O)O)NC(=O)[C@H](CO)NC(=O)[C@@H](NC(=O)[C@H](Cc1ccccc1)NC(=O)[C@@H](NC(=O)CNC(=O)[C@H](CCC(=O)O)NC(=O)CNC(=O)[C@@H](N)Cc1c[nH]cn1)[C@@H](C)O)[C@@H](C)O)[C@@H](C)CC)C(=O)N[C@@H](C)C(=O)NCC(=O)NCC(=O)N1CCC[C@H]1C(=O)N[C@@H](CO)C(=O)N[C@@H](CO)C(=O)NCC(=O)N[C@@H](CCCCN)C(=O)N1CCC[C@H]1C(=O)N1CCC[C@H]1C(=O)N1CCC[C@H]1C(=O)N[C@@H](CCCCN)C(N)=O` [Ab P031] (H-HGEGTFTSDLSELLEKRAQHEFIEWLIAGGPSSGKPPPK-NH2; N-terminus assumed) here?
The EC50 was > 10 nM.

And the EC50 (human GIP receptor)?
The EC50 was 0.271 nM.

Which results are given for dulaglutide [SAR10]?
body weight (in words) ([2]; DIO NASH cynomolgus monkeys): Significant reductions in body weight; food intake ([2]; DIO NASH cynomolgus monkeys): Reduction of food intake; fasting glucose and fed glucose levels (12:30 and 18:30) [2, 3]: No significant change; ivGTT glucose AUC [2, 3]: significantly decreased; ivGTT plasma insulin AUC [2, 3]: significant increase; blood glucose levels, plasma profile [2, 4]: appreciable decreases; insulin, plasma profile [2, 4]: decreased; HDL levels, plasma profile ([2]; day +76 versus day −27): slightly increased; T-ketones levels, plasma profile ([2]; day +76 versus day −27): quite stable; TC and LDL levels, plasma profile ([2]; day +76 versus day −27): decreased; TG values, plasma profile ([2]; day +76 versus day −27): quite stable; liver fat fraction change (MRI) ([2]; measured on days +81/+82/+83/+84, DIO NASH cynomolgus monkeys): −25.2%; NASH steatosis score ([2]; more monkeys improved compared to vehicle treated group): improved steatosis score
